# Values joined by “and” are separate entries in the source; they are usually repeats but may differ in a detail not shown here. Equal entries are not always repeated.
# How the values were obtained:
# [1] = system: GLXMA; experiment: Preemergence herbicidal evaluation; format: in vivo
# Experimental: The preemergence and postemergence herbicidal properties of certain compounds of the present invention are compared with certain compounds disclosed in U.S. Pat. Nos. 5,484,763 and 5,523,278. The evaluations are performed as described in Examples 185 and 186. Data in Tables V and VI are reported by the compound number given in Example 185 for the compounds of this invention or by comparative compound letter for the compounds disclosed in U.S. Pat. Nos. 5,484,763 and 5,523,278.
# [2] = system: GALAP; experiment: Postemergence herbicidal evaluation; format: in vivo
# [3] = system: ABUTH; experiment: Postemergence herbicidal evaluation; format: in vivo
# [4] = system: ECHCG; experiment: Postemergence herbicidal evaluation; format: in vivo
# [5] = system: GLXMA; experiment: Postemergence herbicidal evaluation; format: in vivo
# [6] = system: TRZAWR; experiment: Postemergence herbicidal evaluation; format: in vivo
# [7] = system: ZEAMX; experiment: Postemergence herbicidal evaluation; format: in vivo
# [8] = system: SETVI; experiment: Preemergence herbicidal evaluation; format: in vivo; parameters: scale not given here
# [9] = system: CASOB; experiment: Preemergence herbicidal evaluation; format: in vivo; parameters: scale not given here
# [10] = system: AMBEL; experiment: Preemergence herbicidal evaluation; format: in vivo; parameters: scale not given here
# [11] = system: GALAP; experiment: Preemergence herbicidal evaluation; format: in vivo; parameters: scale not given here
# [12] = system: CHEAL; experiment: Preemergence herbicidal evaluation; format: in vivo; parameters: scale not given here
# [13] = system: ABUTH; experiment: Preemergence herbicidal evaluation; format: in vivo; parameters: scale not given here
# [14] = system: TRZAWR; experiment: Preemergence herbicidal evaluation; format: in vivo; parameters: scale not given here
# [15] = system: ECHCG; experiment: Preemergence herbicidal evaluation; format: in vivo; parameters: scale not given here
# [16] = system: ZEAMX; experiment: Preemergence herbicidal evaluation; format: in vivo; parameters: scale not given here
# [17] = system: IPOSS; experiment: Preemergence herbicidal evaluation; format: in vivo; parameters: scale not given here
# [18] = system: SETVI; experiment: Postemergence herbicidal evaluation; format: in vivo
# [19] = system: ORYSAT; experiment: Preemergence herbicidal evaluation; format: in vivo, Oryza sativa; parameters: scale not given here
# [20] = system: ORYSAT; experiment: Postemergence herbicidal evaluation; format: in vivo, Oryza sativa
# [21] = system: CHEAL; experiment: Postemergence herbicidal evaluation; format: in vivo
# [22] = system: IPOSS; experiment: Postemergence herbicidal evaluation; format: in vivo
structure (smiles),measurement,setting,value
"Cc1nsc2ccc(-n3c(=O)cc(C(F)(F)F)n(C)c3=O)cc12 [Compound 6, 1-Methyl-3-(3-methyl-1,2-benzisothiazol-5-yl)-6-(trifluoromethyl)-2,4(1H,3H)-pyrimidinedione]",herbicidal effect rating,[1]; 0.0156-0.0160 kg/ha,2.0
same,herbicidal effect rating,[1]; 0.0313-0.0320 kg/ha,2.0
same,herbicidal effect rating,[1]; 0.0620-0.0630 kg/ha,4.0
same,herbicidal effect rating,[1]; 0.1250 kg/ha,7.0
same,herbicidal effect rating,[1]; 0.2500 kg/ha,9.0
same,herbicidal effect rating,[1]; 0.5000 kg/ha,9.0
same,herbicidal effect rating,[2]; 0.0625-0.0640 kg/ha,9.0 and 5.0
same,herbicidal effect rating,[2]; 0.1250 kg/ha,9.0
same,herbicidal effect rating,[2]; 0.2500 kg/ha,9.0
same,herbicidal effect rating,[2]; 0.5000 kg/ha,9.0
same,herbicidal effect rating,[3]; 0.0157-0.0160 kg/ha,5.7 and 5.0 and 8.0
same,herbicidal effect rating,[3]; 0.0313-0.0320 kg/ha,9.0
same,herbicidal effect rating,[3]; 0.0625-0.0640 kg/ha,9.0
same,herbicidal effect rating,[3]; 0.1250 kg/ha,9.0
same,herbicidal effect rating,[3]; 0.2500 kg/ha,9.0
same,herbicidal effect rating,[3]; 0.5000 kg/ha,9.0
same,herbicidal effect rating,[4]; 0.0313-0.0320 kg/ha,1.0 and 2.0
same,herbicidal effect rating,[4]; 0.0625-0.0640 kg/ha,3.0 and 1.5 and 2.0
same,herbicidal effect rating,[4]; 0.1250 kg/ha,7.0
same,herbicidal effect rating,[4]; 0.2500 kg/ha,6.0
same,herbicidal effect rating,[4]; 0.5000 kg/ha,7.0
same,herbicidal effect rating,[5]; 0.0157-0.0160 kg/ha,2.5 and 4.0
same,herbicidal effect rating,[5]; 0.0313-0.0320 kg/ha,5.0 and 4.0
same,herbicidal effect rating,[5]; 0.0625-0.0640 kg/ha,4.0
same,herbicidal effect rating,[5]; 0.1250 kg/ha,6.0
same,herbicidal effect rating,[5]; 0.2500 kg/ha,6.0
same,herbicidal effect rating,[5]; 0.5000 kg/ha,7.0
same,herbicidal effect rating,[6]; 0.0625-0.0640 kg/ha,3.0 and 1.5 and 2.0
same,herbicidal effect rating,[6]; 0.1250 kg/ha,2.5
same,herbicidal effect rating,[6]; 0.2500 kg/ha,5.0
same,herbicidal effect rating,[6]; 0.5000 kg/ha,6.0
same,herbicidal effect rating,[7]; 0.0157-0.0160 kg/ha,3.5 and 4.0 and 2.0
same,herbicidal effect rating,[7]; 0.0313-0.0320 kg/ha,3.8 and 4.3 and 3.5
same,herbicidal effect rating,[7]; 0.0625-0.0640 kg/ha,5.0 and 4.5 and 3.5
same,herbicidal effect rating,[7]; 0.1250 kg/ha,3.5
same,herbicidal effect rating,[7]; 0.2500 kg/ha,3.5
same,herbicidal effect rating,[7]; 0.5000 kg/ha,3.0
same,herbicidal effect rating,[8]; 0.0313-0.0320 kg/ha,8.4 and 9.0 and 5.5
same,herbicidal effect rating,[8]; 0.0620-0.0630 kg/ha,9.0 and 6.0
same,herbicidal effect rating,[8]; 0.1250 kg/ha,9.0
same,herbicidal effect rating,[8]; 0.2500 kg/ha,9.0
same,herbicidal effect rating,[8]; 0.5000 kg/ha,9.0
same,herbicidal effect rating,[9]; 0.0313-0.0320 kg/ha,6.0 and 9.0 and 4.5
same,herbicidal effect rating,[9]; 0.0620-0.0630 kg/ha,7.0 and 5.5
same,herbicidal effect rating,[9]; 0.1250 kg/ha,6.5
same,herbicidal effect rating,[9]; 0.2500 kg/ha,9.0
same,herbicidal effect rating,[9]; 0.5000 kg/ha,9.0
same,herbicidal effect rating,[10]; 0.0313-0.0320 kg/ha,7.4 and 9.0 and 4.5
same,herbicidal effect rating,[10]; 0.0620-0.0630 kg/ha,9.0 and 6.0
same,herbicidal effect rating,[10]; 0.1250 kg/ha,7.0
same,herbicidal effect rating,[10]; 0.2500 kg/ha,9.0
same,herbicidal effect rating,[10]; 0.5000 kg/ha,9.0
same,herbicidal effect rating,[11]; 0.0156-0.0160 kg/ha,4.8 and 8.5
same,herbicidal effect rating,[11]; 0.0313-0.0320 kg/ha,5.3 and 8.5 and 9.0
same,herbicidal effect rating,[11]; 0.0620-0.0630 kg/ha,9.0
same,herbicidal effect rating,[11]; 0.1250 kg/ha,9.0
same,herbicidal effect rating,[11]; 0.2500 kg/ha,9.0
same,herbicidal effect rating,[11]; 0.5000 kg/ha,9.0
same,herbicidal effect rating,[12]; 0.0156-0.0160 kg/ha,8.8 and 9.0 and 5.0
same,herbicidal effect rating,[12]; 0.0313-0.0320 kg/ha,9.0 and 8.0
same,herbicidal effect rating,[12]; 0.0620-0.0630 kg/ha,9.0
same,herbicidal effect rating,[12]; 0.1250 kg/ha,9.0
same,herbicidal effect rating,[12]; 0.2500 kg/ha,9.0
same,herbicidal effect rating,[12]; 0.5000 kg/ha,9.0
same,herbicidal effect rating,[13]; 0.0313-0.0320 kg/ha,9.0 and 4.5
same,herbicidal effect rating,[13]; 0.0620-0.0630 kg/ha,9.0
same,herbicidal effect rating,[13]; 0.1250 kg/ha,9.0
same,herbicidal effect rating,[13]; 0.2500 kg/ha,9.0
same,herbicidal effect rating,[13]; 0.5000 kg/ha,9.0
same,herbicidal effect rating,[14]; 0.0156-0.0160 kg/ha,3.0 and 3.5
same,herbicidal effect rating,[14]; 0.0313-0.0320 kg/ha,5.6 and 6.5 and 6.3
same,herbicidal effect rating,[14]; 0.0620-0.0630 kg/ha,7.0 and 8.3
same,herbicidal effect rating,[14]; 0.1250 kg/ha,8.7
same,herbicidal effect rating,[14]; 0.2500 kg/ha,8.0
same,herbicidal effect rating,[14]; 0.5000 kg/ha,9.0
same,herbicidal effect rating,[15]; 0.0313-0.0320 kg/ha,5.6 and 8.0 and 4.5
same,herbicidal effect rating,[15]; 0.0620-0.0630 kg/ha,9.0 and 5.5
same,herbicidal effect rating,[15]; 0.1250 kg/ha,6.0
same,herbicidal effect rating,[15]; 0.2500 kg/ha,9.0
same,herbicidal effect rating,[15]; 0.5000 kg/ha,9.0
same,herbicidal effect rating,[16]; 0.0313-0.0320 kg/ha,4.2 and 7.5 and 5.3
same,herbicidal effect rating,[16]; 0.0620-0.0630 kg/ha,8.0 and 6.0
same,herbicidal effect rating,[16]; 0.1250 kg/ha,6.5
same,herbicidal effect rating,[16]; 0.2500 kg/ha,9.0
same,herbicidal effect rating,[16]; 0.5000 kg/ha,9.0
same,herbicidal effect rating,[17]; 0.0156-0.0160 kg/ha,7.5
same,herbicidal effect rating,[17]; 0.0313-0.0320 kg/ha,7.5 and 7.0
same,herbicidal effect rating,[17]; 0.0620-0.0630 kg/ha,7.0
same,herbicidal effect rating,[17]; 0.1250 kg/ha,9.0
same,herbicidal effect rating,[17]; 0.2500 kg/ha,9.0
same,herbicidal effect rating,[17]; 0.5000 kg/ha,9.0
same,herbicidal effect rating,[18]; 0.1250 kg/ha,9.0
same,herbicidal effect rating,[18]; 0.2500 kg/ha,9.0
same,herbicidal effect rating,[18]; 0.5000 kg/ha,9.0
same,herbicidal effect rating,[19]; 0.0156-0.0160 kg/ha,2.8 and 4.0
same,herbicidal effect rating,[19]; 0.0313-0.0320 kg/ha,4.4 and 7.0
same,herbicidal effect rating,[19]; 0.0620-0.0630 kg/ha,7.0
same,herbicidal effect rating,[19]; 0.1250 kg/ha,8.0
same,herbicidal effect rating,[19]; 0.2500 kg/ha,8.0
same,herbicidal effect rating,[19]; 0.5000 kg/ha,9.0
same,herbicidal effect rating,[20]; 0.0313-0.0320 kg/ha,1.5 and 1.0
same,herbicidal effect rating,[20]; 0.0625-0.0640 kg/ha,1.0 and 1.8 and 1.5
same,herbicidal effect rating,[20]; 0.1250 kg/ha,4.5
same,herbicidal effect rating,[20]; 0.2500 kg/ha,5.0
same,herbicidal effect rating,[20]; 0.5000 kg/ha,5.0
same,herbicidal effect rating,[21]; 0.0313-0.0320 kg/ha,6.5 and 5.0 and 9.0
same,herbicidal effect rating,[21]; 0.0625-0.0640 kg/ha,9.0 and 7.0
same,herbicidal effect rating,[21]; 0.1250 kg/ha,9.0
same,herbicidal effect rating,[21]; 0.2500 kg/ha,9.0
same,herbicidal effect rating,[21]; 0.5000 kg/ha,9.0
same,herbicidal effect rating,[22]; 0.0157-0.0160 kg/ha,7.5 and 7.0
same,herbicidal effect rating,[22]; 0.0313-0.0320 kg/ha,9.0 and 8.0
same,herbicidal effect rating,[22]; 0.0625-0.0640 kg/ha,9.0
same,herbicidal effect rating,[22]; 0.1250 kg/ha,9.0
same,herbicidal effect rating,[22]; 0.2500 kg/ha,9.0
same,herbicidal effect rating,[22]; 0.5000 kg/ha,9.0

# — patent publication US6156700A, “3-(1,2-Benzisothiazol- and isoxazol-5-yl)-2,4(1H,3H)-pyrimidinedione or thione and 3-(1,2-benzisothiazol- and isoxazol-5-yl)-4(3H)-pyrimidinone or thione herbicidal agents” (American Cyanmid Company, priority 1998, dated 2000)
